Test results taken from patent US7645588B2, “Composition comprising a cell comprising a STIM1 protein and an agent that modulates intracellular calcium and methods of use” (CalciMedica, Inc., priority 2003, dated 2010).
Like-named read-outs stand apart in the source and are kept apart here.

Legend:
[1] = test system: store-operated calcium entry (SOCE); conditions: read-out: IC50 for inhibition of calcium entry; HEK-Zeo control cells; thapsigargin-mediated store depletion followed by readdition of external calcium
Description: The relative cation permeability was assessed in HEK-Zeo and in HEK[STIM1] cells. Cells were loaded with Fluo-4 and treated with thapsigargin to discharge intracellular Ca^2+ stores (HEK-Zeo cells), or vehicle-treated (both HEK-Zeo and HEK[STIM1] cells). After 15 minutes, 10 mM BaCl2 (final concentration), 10 mM SrCl2 (final concentration), or 1.8 mM CaCl2 (final concentration) was added to elicit cation influx. To quantify the rate of cation influx, the first 30 seconds of data following cation addition was analyzed by linear regression.

[2] = test system: store-operated calcium entry (SOCE); conditions: read-out: IC50 for inhibition of calcium entry; HEK[STIM1] cells; thapsigargin-mediated store depletion followed by readdition of external calcium
Description: (§1) For stable cell lines overexpressing STIM1, pcDNA[STIM1/542-5] was transfected into 3×10^5 HEK293 cells using Effectene (QIAGEN) transfection reagent following the manufacturer's protocol. Forty-eight hours after transfection, cells were harvested and replated under selection with 250 μg/ml Zeocin (Invitrogen). Colonies were selected, amplified, and evaluated for expression of STIM1 mRNA and protein by RT-PCR and western blot, respectively. Limiting dilution of the STIM1 overexpressing colonies generated individual clones.

STIM1-induced Ca2+ entry = conditions: HEK[STIM1] cells, absence of store depletion
Description: as §1

Jurkat T cells = assay: IL-2 secretion from Jurkat T cells (ELISA); format: cell-based, human; conditions: Jurkat clone 4A5; 2.5 μg/ml PHA + 80 nM TPA for 20 hours
Excerpt: To test this prediction, a stable Jurkat T cell line expressing a short hairpin siRNA to suppress expression of STIM1 was generated as follows. Oligonucleotides corresponding to the STIM1-1140 siRNA (sense oligo, 5′-GATCCCGGCTCTGGATACAGTGCTCTTCAAGAGAGAGCACTGTATCCAGAGCCTTTTTTGGAAA-3′ SEQ ID NO: 99; antisense oligo, 5′-AGCTTTTCCAAAAAAGGCTCTGGATACAGTGCTCTCTCTTGAAGAGCACTGTATCCAGAGCCGG-3′ SEQ ID NO: 100) were annealed and ligated into pSilencer 2.1-U6 neo (Ambion) according to the manufacturer's protocol. Correct inserts were verified by DNA sequencing. For the control, a non-silencing scrambled siRNA (Negative Control oligo; Ambion) was generated as above. 2×10^6 Jurkat T cells were electroporated with 5 μg plasmid using a Bio-Rad Gene Pulser (140V, 30 msec, 4 pulses). Two days after transfection, cells were harvested and resuspended in media containing G-418 selection at a concentration of 1×10^4 cells/ml. 1 ml of cells/well was plated in 24-well plates. […]
To measure IL-2 secretion from Jurkat T cells, cells were plated in a 96 well plate at a density of 1.5×10^5 cells/well. […] The media was collected and analyzed for IL-2 levels by ELISA (BioSource) according to the manufacturer's protocols. […]

| Molecule | IC50 [1] [µM] | IC50 [2] [µM] | effect on calcium entry at lower concentrations (STIM1-induced Ca2+ entry; lower concentrations of 2-APB (biphasic effect)) | IC50 (STIM1-induced Ca2+ entry; read-out: IC50 for inhibition of constitutive calcium entry) [µM] | secretion of IL-2 upon stimulation (Jurkat T cells) |
| --- | --- | --- | --- | --- | --- |
| NCCOB(c1ccccc1)c1ccccc1 [2-APB, 2-aminoethoxydiphenyl borate] | 11.8 | 10.5 | potentiated | 10.8 |  |
| STIM1-1140 short hairpin siRNA: Short hairpin siRNA corresponding to STIM1-1140, expressed from pSilencer 2.1-U6 neo in stable Jurkat clone 4A5 (nucleic acid, target site or template, no part of the molecule) chain 1: GATCCCGGCTCTGGATACAGTGCTCTTCAAGAGAGAGCACTGTATCCAGAGCCTTTTTTGGAAA chain 2: AGCTTTTCCAAAAAAGGCTCTGGATACAGTGCTCTCTCTTGAAGAGCACTGTATCCAGAGCCGG |  |  |  |  | completely blocked |
